Data: PubChem BioAssay (NCI)
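Grown in 96-well plates, cells were treated for 48 hours with each compound at five concentrations. Insufficient inhibition: endpoint recorded as highest concentration tested. TGI: concentration producing complete growth inhibition.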

Tests used:
Assay in all cases: growth of human tumour cells (NCI), 48 h
786-0 renal = test system: 786-0 renal
A498 renal = test system: A498 renal
A549 NSCLC = test system: A549 NSCLC
ACHN renal = test system: ACHN renal
BT-549 breast = test system: BT-549 breast
CAKI-1 renal = test system: CAKI-1 renal
CCRF-CEM leukemia = test system: CCRF-CEM leukemia
COLO 205 colon = test system: COLO 205 colon
DU-145 prostate = test system: DU-145 prostate
EKVX NSCLC = test system: EKVX NSCLC
HCC-2998 colon = test system: HCC-2998 colon
HCT-116 colon = test system: HCT-116 colon
HCT-15 colon = test system: HCT-15 colon
HL-60(TB) leukemia = test system: HL-60(TB) leukemia
HOP-62 NSCLC = test system: HOP-62 NSCLC
HOP-92 NSCLC = test system: HOP-92 NSCLC
HT29 colon = test system: HT29 colon
IGROV1 ovarian = test system: IGROV1 ovarian
K-562 leukemia = test system: K-562 leukemia
KM12 colon = test system: KM12 colon
M14 melanoma = test system: M14 melanoma
MALME-3M melanoma = test system: MALME-3M melanoma
MCF7 breast = test system: MCF7 breast
MDA-MB-231 breast = test system: MDA-MB-231 breast
MDA-MB-435 = test system: MDA-MB-435
MDA-N = test system: MDA-N
MOLT-4 leukemia = test system: MOLT-4 leukemia
NCI-H226 lung = test system: NCI-H226 lung
NCI-H23 lung = test system: NCI-H23 lung
NCI-H460 lung = test system: NCI-H460 lung
NCI-H522 lung = test system: NCI-H522 lung
NCI/ADR-RES ovarian = test system: NCI/ADR-RES ovarian
OVCAR-3 ovarian = test system: OVCAR-3 ovarian
OVCAR-4 ovarian = test system: OVCAR-4 ovarian
OVCAR-5 ovarian = test system: OVCAR-5 ovarian
OVCAR-8 ovarian = test system: OVCAR-8 ovarian
PC-3 prostate = test system: PC-3 prostate
RPMI-8226 leukemia = test system: RPMI-8226 leukemia
RXF 393 renal = test system: RXF 393 renal
SF-268 CNS = test system: SF-268 CNS
SF-295 CNS = test system: SF-295 CNS
SF-539 CNS = test system: SF-539 CNS
SK-MEL-2 melanoma = test system: SK-MEL-2 melanoma
SK-MEL-28 melanoma = test system: SK-MEL-28 melanoma
SK-MEL-5 melanoma = test system: SK-MEL-5 melanoma
SK-OV-3 ovarian = test system: SK-OV-3 ovarian
SN12C renal = test system: SN12C renal
SNB-19 CNS = test system: SNB-19 CNS
SW-620 colon = test system: SW-620 colon
T-47D breast = test system: T-47D breast
TK-10 renal = test system: TK-10 renal
U251 CNS = test system: U251 CNS
UACC-257 melanoma = test system: UACC-257 melanoma
UACC-62 melanoma = test system: UACC-62 melanoma
UO-31 renal = test system: UO-31 renal
HS 578T breast = test system: HS 578T breast
LOX IMVI melanoma = test system: LOX IMVI melanoma
SR leukemia = test system: SR leukemia

## O=C(NN1C(=O)CSC1c1ccco1)c1ccncc1 (configuration not stated)
786-0 renal
  TGI: > 100 µM
A498 renal
  TGI: > 100 µM
A549 NSCLC
  TGI: > 100 µM
ACHN renal
  TGI: > 100 µM
BT-549 breast
  TGI: > 100 µM
CAKI-1 renal
  TGI: > 100 µM
CCRF-CEM leukemia
  TGI: > 100 µM
COLO 205 colon
  TGI: > 100 µM
DU-145 prostate
  TGI: > 100 µM
EKVX NSCLC
  TGI: > 100 µM
HCC-2998 colon
  TGI: > 100 µM
HCT-116 colon
  TGI: > 100 µM
HCT-15 colon
  TGI: > 100 µM
HL-60(TB) leukemia
  TGI: > 100 µM
HOP-62 NSCLC
  TGI: > 100 µM
HOP-92 NSCLC
  TGI: > 100 µM
HT29 colon
  TGI: > 100 µM
IGROV1 ovarian
  TGI: > 100 µM
K-562 leukemia
  TGI: > 100 µM
KM12 colon
  TGI: > 100 µM
M14 melanoma
  TGI: > 100 µM
MALME-3M melanoma
  TGI: > 100 µM
MCF7 breast
  TGI: > 100 µM
MDA-MB-231 breast
  TGI: > 100 µM
MDA-MB-435
  TGI: > 100 µM
MDA-N
  TGI: > 100 µM
MOLT-4 leukemia
  TGI: > 100 µM
NCI-H226 lung
  TGI: > 100 µM
NCI-H23 lung
  TGI: > 100 µM
NCI-H460 lung
  TGI: > 100 µM
NCI-H522 lung
  TGI: > 100 µM
NCI/ADR-RES ovarian
  TGI: > 100 µM
OVCAR-3 ovarian
  TGI: > 100 µM
OVCAR-4 ovarian
  TGI: > 100 µM
OVCAR-5 ovarian
  TGI: > 100 µM
OVCAR-8 ovarian
  TGI: > 100 µM
PC-3 prostate
  TGI: > 100 µM
RPMI-8226 leukemia
  TGI: > 100 µM
RXF 393 renal
  TGI: > 100 µM
SF-268 CNS
  TGI: > 100 µM
SF-295 CNS
  TGI: > 100 µM
SF-539 CNS
  TGI: > 100 µM
SK-MEL-2 melanoma
  TGI: > 100 µM
SK-MEL-28 melanoma
  TGI: > 100 µM
SK-MEL-5 melanoma
  TGI: > 100 µM
SK-OV-3 ovarian
  TGI: > 100 µM
SN12C renal
  TGI: > 100 µM
SNB-19 CNS
  TGI: > 100 µM
SW-620 colon
  TGI: > 100 µM
T-47D breast
  TGI: > 100 µM
TK-10 renal
  TGI: > 100 µM
U251 CNS
  TGI: > 100 µM
UACC-257 melanoma
  TGI: > 100 µM
UACC-62 melanoma
  TGI: > 100 µM
UO-31 renal
  TGI: > 100 µM

## CCCCNC(=S)c1ccc(OC(=O)Nc2ccc(Cl)cc2)cc1
786-0 renal
  TGI: > 100 µM
A498 renal
  TGI: > 100 µM
A549 NSCLC
  TGI: > 100 µM
ACHN renal
  TGI: > 100 µM
BT-549 breast
  TGI: > 100 µM
CAKI-1 renal
  TGI: > 100 µM
CCRF-CEM leukemia
  TGI: > 100 µM
COLO 205 colon
  TGI: 57.5 µM
DU-145 prostate
  TGI: > 100 µM
EKVX NSCLC
  TGI: > 100 µM
HCC-2998 colon
  TGI: > 100 µM
HCT-116 colon
  TGI: > 100 µM
HCT-15 colon
  TGI: > 100 µM
HL-60(TB) leukemia
  TGI: > 100 µM
HOP-62 NSCLC
  TGI: > 100 µM
HS 578T breast
  TGI: > 100 µM
HT29 colon
  TGI: > 100 µM
IGROV1 ovarian
  TGI: 70.4 µM
K-562 leukemia
  TGI: > 100 µM
KM12 colon
  TGI: > 100 µM
LOX IMVI melanoma
  TGI: > 100 µM
M14 melanoma
  TGI: > 100 µM
MALME-3M melanoma
  TGI: > 100 µM
MCF7 breast
  TGI: > 100 µM
MDA-MB-435
  TGI: > 100 µM
MDA-N
  TGI: > 100 µM
MOLT-4 leukemia
  TGI: > 100 µM
NCI-H23 lung
  TGI: > 100 µM
NCI-H460 lung
  TGI: > 100 µM
NCI-H522 lung
  TGI: > 100 µM
NCI/ADR-RES ovarian
  TGI: > 100 µM
OVCAR-3 ovarian
  TGI: > 100 µM
OVCAR-4 ovarian
  TGI: > 100 µM
OVCAR-5 ovarian
  TGI: > 100 µM
OVCAR-8 ovarian
  TGI: > 100 µM
PC-3 prostate
  TGI: > 100 µM
RPMI-8226 leukemia
  TGI: > 100 µM
SF-268 CNS
  TGI: > 100 µM
SF-295 CNS
  TGI: > 100 µM
SF-539 CNS
  TGI: > 100 µM
SK-MEL-2 melanoma
  TGI: > 100 µM
SK-MEL-28 melanoma
  TGI: > 100 µM
SK-MEL-5 melanoma
  TGI: > 100 µM
SK-OV-3 ovarian
  TGI: > 100 µM
SNB-19 CNS
  TGI: > 100 µM
SR leukemia
  TGI: > 100 µM
SW-620 colon
  TGI: > 100 µM
T-47D breast
  TGI: > 100 µM
U251 CNS
  TGI: > 100 µM
UACC-257 melanoma
  TGI: > 100 µM
UACC-62 melanoma
  TGI: 93.6 µM
UO-31 renal
  TGI: > 100 µM
